From PubChem BioAssay AID330 (DTP/NCI, 2004)
Values joined by “and” are separate entries in the source; they are usually repeats but may differ in a detail not shown here. Equal entries are not always repeated. Inconclusive results and toxic doses are left out.

System: P388 leukemia ip, CD2F1 mice, survival T/C
Assay: NCI In Vivo Anticancer Drug Screen. Data for tumor model P388 Leukemia (intraperitoneal) in CD2F1 (CDF1) mice
Conditions: endpoint: median survival time, higher = longer survival
Outline: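 Mice carrying the transplanted tumor received test compound or vehicle. Survival was recorded in each group, and the value is the treated-group measurement divided by that of the vehicle-treated control group.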

Compound: CC1(C)C/C(=N/NC(N)=S)C(=NO)/C(=N\NC(N)=S)C1
- T/C (dose: 60.0 mg/kg/injection, schedule: Q01DX005 (ip), vehicle: saline with Tween-80): 123 % of control
- T/C (dose: 120.0 mg/kg/injection, schedule: Q01DX005 (ip), vehicle: saline with Tween-80): 110 % of control
- T/C (dose: 240.0 mg/kg/injection, schedule: Q01DX005 (ip), vehicle: saline with Tween-80): 113 % of control

Compound: O=C(NC(Cc1cccs1)C(=O)O)c1ccccc1 (stereo not drawn)
- T/C (dose: 25.0 mg/kg/injection, schedule: Q01DX009 (ip), vehicle: other): 102 % of control
- T/C (dose: 50.0 mg/kg/injection, schedule: Q01DX009 (ip), vehicle: other): 96 % of control
- T/C (dose: 100.0 mg/kg/injection, schedule: Q01DX009 (ip), vehicle: other): 102 % of control

Compound: Cc1ccc(-n2cnc3c(N)nc(N)nc32)cc1
- T/C (dose: 1.56 mg/kg/injection, schedule: Q01DX005 (ip), vehicle: saline with Tween-80): 100 % of control
- T/C (dose: 3.13 mg/kg/injection, schedule: Q01DX005 (ip), vehicle: saline with Tween-80): 108 % of control
- T/C (dose: 6.25 mg/kg/injection, schedule: Q01DX005 (ip), vehicle: saline with Tween-80): 108 % of control and 112 % of control
- T/C (dose: 12.5 mg/kg/injection, schedule: Q01DX005 (ip), vehicle: saline with Tween-80): 115 % of control

Compound: COc1ccc(C(=O)CCS(=O)(=O)CCC(=O)c2ccc(OC)cc2)cc1
- T/C (dose: 100.0 mg/kg/injection, schedule: Q04DX003 (ip), vehicle: saline): 93 % of control
- T/C (dose: 200.0 mg/kg/injection, schedule: Q04DX003 (ip), vehicle: saline): 91 % of control
- T/C (dose: 400.0 mg/kg/injection, schedule: Q04DX003 (ip), vehicle: saline): 91 % of control

Compound: CN(C)CC(CN(C)C)C(=O)/C=C/c1ccc(Cl)cc1Cl
- T/C (dose: 7.5 mg/kg/injection, schedule: Q01DX005 (ip), vehicle: saline): 104 % of control
- T/C (dose: 15.0 mg/kg/injection, schedule: Q01DX005 (ip), vehicle: saline): 97 % of control
- T/C (dose: 30.0 mg/kg/injection, schedule: Q01DX005 (ip), vehicle: saline): 100 % of control

Compound: CCC[CH2][Sn]([CH2]CCC)([S]CC(=O)OC)[S]CC(=O)OC
- T/C (dose: 1.56 mg/kg/injection, schedule: Q01DX001 (ip), vehicle: Klucel (hydroxypropylcellulose) (HPC)): 110 % of control
- T/C (dose: 3.12 mg/kg/injection, schedule: Q01DX001 (ip), vehicle: Klucel (hydroxypropylcellulose) (HPC)): 111 % of control
- T/C (dose: 6.25 mg/kg/injection, schedule: Q01DX001 (ip), vehicle: Klucel (hydroxypropylcellulose) (HPC)): 96 % of control
- T/C (dose: 12.5 mg/kg/injection, schedule: Q01DX001 (ip), vehicle: Klucel (hydroxypropylcellulose) (HPC)): 106 % of control
- T/C (dose: 25.0 mg/kg/injection, schedule: Q01DX001 (ip), vehicle: Klucel (hydroxypropylcellulose) (HPC)): 115 % of control

Compound: C/C(=N\N=C\N(C)S(=O)(=O)c1ccc(C)cc1)c1ccccc1
- T/C (dose: 50.0 mg/kg/injection, schedule: Q01DX005 (ip), vehicle: Klucel (hydroxypropylcellulose) (HPC)): 104 % of control
- T/C (dose: 100.0 mg/kg/injection, schedule: Q01DX005 (ip), vehicle: Klucel (hydroxypropylcellulose) (HPC)): 98 % of control
- T/C (dose: 200.0 mg/kg/injection, schedule: Q01DX005 (ip), vehicle: Klucel (hydroxypropylcellulose) (HPC)): 95 % of control

Compound: COc1cccc2c1C(=O)c1c(O)c3c(c(O)c1C2=O)CC(O)(/C(C)=N/NC(=O)CCCC(=O)N/N=C(\C)C1(O)Cc2c(O)c4c(c(O)c2C(OC2CC(N)C(O)C(C)O2)C1)C(=O)c1c(OC)cccc1C4=O)CC3OC1CC(N)C(O)C(C)O1 (stereo not drawn)
- T/C (dose: 0.2 mg/kg/injection, schedule: Q01DX009 (ip), vehicle: water): 105 % of control
- T/C (dose: 0.39 mg/kg/injection, schedule: Q01DX009 (ip), vehicle: water): 90 % of control
- T/C (dose: 0.78 mg/kg/injection, schedule: Q01DX009 (ip), vehicle: water): 150 % of control
- T/C (dose: 1.56 mg/kg/injection, schedule: Q01DX009 (ip), vehicle: water): 188 % of control
- T/C (dose: 3.13 mg/kg/injection, schedule: Q01DX009 (ip), vehicle: water): 167 % of control

Compound: COc1ccc(C#CC(O)C(F)(F)F)cc1 (stereo not drawn)
- T/C (dose: 25.0 mg/kg/injection, schedule: Q01DX009 (ip), vehicle: saline with Tween-80): 102 % of control
- T/C (dose: 50.0 mg/kg/injection, schedule: Q01DX009 (ip), vehicle: saline with Tween-80): 106 % of control
- T/C (dose: 100.0 mg/kg/injection, schedule: Q01DX009 (ip), vehicle: saline with Tween-80): 107 % of control

Compound: CC(=O)/C=C(\C)NCCN/C(C)=C/C(C)=O
- T/C (dose: 60.0 mg/kg/injection, schedule: Q01DX005 (ip), vehicle: saline): 101 % of control
- T/C (dose: 120.0 mg/kg/injection, schedule: Q01DX005 (ip), vehicle: saline): 98 % of control
- T/C (dose: 240.0 mg/kg/injection, schedule: Q01DX005 (ip), vehicle: saline): 98 % of control

Compound: NCCSCCO
- T/C (dose: 50.0 mg/kg/injection, schedule: Q01DX005 (ip), vehicle: saline): 98 % of control
- T/C (dose: 100.0 mg/kg/injection, schedule: Q01DX005 (ip), vehicle: saline): 100 % of control
- T/C (dose: 200.0 mg/kg/injection, schedule: Q01DX005 (ip), vehicle: saline): 99 % of control
